One assay deals with T1, human PI3Kα protein (Homo sapiens, UniProt P42336).
T1 construct: purchased Carna Biosciences, Inc; host or cells: baculovirus expression system
The experiment in a line: PI3Kα enzyme assay (ADP-Glo). The format is biochemical. Conditions: read-out: PI3Kα enzyme inhibitory activity. The protocol:
In a PI3Kα enzyme assay, a product (manufactured by Carna Biosciences, Inc.) obtained by biotinylating a human PI3Kα protein produced by using a baculovirus expression system was used. In addition, in the detection of enzyme activity, ADP-GLO KINASE ASSAY (trade name, manufactured by PROMEGA Corporation) was used.
10 μL of a reaction liquid (4.5 nmol/L PI3Kα, 40 mmol/L Tris-HCl, 20 mmol/L MgCl2, 0.1% BSA, pH 7.5) including the human PI3Kα protein and a test compound having a predetermined concentration was allowed to stand at room temperature for 15 minutes. Then, 5 μL of a mixture liquid of L-α-phosphatidylinositol 4,5-diphosphate (PIP2) (manufactured by Sigma-Aldrich Co. LLC.) and ATP (manufactured by Sigma-Aldrich Co. LLC.), which are substrates, was added thereto such that final concentrations thereof became 50 μmol/L and 100 μmol/L, respectively, and an enzyme reaction was performed by allowing to stand at 25° C. for 60 minutes.
After the reaction, the enzyme reaction was stopped by adding 15 μL of an ADP-GLO REAGENT (trade name, manufactured by PROMEGA Corporation) thereto and allowing to stand at room temperature for 60 minutes. Then, 30 μL of a KINASE DETECTION REAGENT (trade name, manufactured by PROMEGA Corporation) was added thereto, followed by allowing to stand at room temperature for 40 minutes, and ADP produced by the enzyme reaction was quantified by emission intensity.
ENVISION (trade name, manufactured by Perkin Elmer Inc.) was used for the measurement of the emission intensity.
(§1) The inhibitory activities of the compounds were evaluated using IC50 (50% inhibitory concentration). The IC50 was calculated using XLFIT (trade name, manufactured by ID Business Solutions).
A general note: ADP-Glo first removes unused ATP, then detects ADP through luciferase.

For assay [1], the target named is T2, GST fusion human ERK2 protein (Homo sapiens, UniProt P28482).
T2 construct: purchased Carna Biosciences, Inc; host or cells: E. coli expression system
T2 sequence (P28482 whole entry, the tested form may be a part): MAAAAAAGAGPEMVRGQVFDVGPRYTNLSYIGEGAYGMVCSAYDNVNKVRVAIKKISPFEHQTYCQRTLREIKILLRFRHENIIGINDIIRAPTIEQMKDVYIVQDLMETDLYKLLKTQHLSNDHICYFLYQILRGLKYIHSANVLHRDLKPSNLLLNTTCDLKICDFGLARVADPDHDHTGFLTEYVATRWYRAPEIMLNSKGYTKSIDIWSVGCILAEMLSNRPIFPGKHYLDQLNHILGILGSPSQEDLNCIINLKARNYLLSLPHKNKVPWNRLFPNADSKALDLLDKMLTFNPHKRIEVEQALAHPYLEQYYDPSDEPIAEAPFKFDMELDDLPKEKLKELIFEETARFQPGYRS
The experiment in a line: ERK2 enzyme assay (2). The format is biochemical. Conditions: read-out: ERK2 enzyme inhibitory activity (2). The protocol: In an ERK2 enzyme assay, GLUTATHIONE S-TRANSFERASE (GST) FUSION HUMAN ERK2 PROTEIN (manufactured by Carna Biosciences, Inc.), which was produced by using an E. coli expression system, was used.
12 μL of a reaction liquid (1.25 nmol/L ERK2, 100 mmol/L Hepes, 10 mmol/L MgCl2, 1.5 mmol/L DTT, 0.003% Brij35, pH 7.5) including ERK2 protein and a test compound having a predetermined concentration was allowed to stand at room temperature for 15 minutes. Then, 3 μL of a mixture liquid of FL-PEPTIDE8 (5-FAM-IPTSPITTTYFFFKKK-COOH) (manufactured by Caliper Life Sciences), which is substrate peptide, and ATP (manufactured by Sigma-Aldrich Co. LLC.) was added thereto such that the final concentrations thereof became 4.25 μmol/L and 1 mmol/L, respectively, and an enzyme reaction was performed by allowing to stand at 25° C. for 120 minutes.
After the reaction, the enzyme reaction was stopped by adding 30 μL of a reaction stopper liquid (100 mmol/L HEPES, 11.2 mmol/L EDTA, 5.6% Brij35, pH 7.5) including a 0.5% COATING REAGENT 8 (trade name, manufactured by Perkin Elmer Inc.) thereto. Then, phosphorylated peptide and non-phosphorylated peptide were separated using LABCHIP EZ READER (trade name, manufactured by Caliper Life Sciences), and the porportion of the phosphorylated peptide was quantified.
as §1

The mark [2] stands for this setting: 4.5 nmol/L PI3Kα, PIP2 50 μmol/L, ATP 100 μmol/L.

Structures can show the parent of a compound that is named as a salt. Where two headings read alike, the source gives them in different places.

T1 sequence (P42336 whole entry): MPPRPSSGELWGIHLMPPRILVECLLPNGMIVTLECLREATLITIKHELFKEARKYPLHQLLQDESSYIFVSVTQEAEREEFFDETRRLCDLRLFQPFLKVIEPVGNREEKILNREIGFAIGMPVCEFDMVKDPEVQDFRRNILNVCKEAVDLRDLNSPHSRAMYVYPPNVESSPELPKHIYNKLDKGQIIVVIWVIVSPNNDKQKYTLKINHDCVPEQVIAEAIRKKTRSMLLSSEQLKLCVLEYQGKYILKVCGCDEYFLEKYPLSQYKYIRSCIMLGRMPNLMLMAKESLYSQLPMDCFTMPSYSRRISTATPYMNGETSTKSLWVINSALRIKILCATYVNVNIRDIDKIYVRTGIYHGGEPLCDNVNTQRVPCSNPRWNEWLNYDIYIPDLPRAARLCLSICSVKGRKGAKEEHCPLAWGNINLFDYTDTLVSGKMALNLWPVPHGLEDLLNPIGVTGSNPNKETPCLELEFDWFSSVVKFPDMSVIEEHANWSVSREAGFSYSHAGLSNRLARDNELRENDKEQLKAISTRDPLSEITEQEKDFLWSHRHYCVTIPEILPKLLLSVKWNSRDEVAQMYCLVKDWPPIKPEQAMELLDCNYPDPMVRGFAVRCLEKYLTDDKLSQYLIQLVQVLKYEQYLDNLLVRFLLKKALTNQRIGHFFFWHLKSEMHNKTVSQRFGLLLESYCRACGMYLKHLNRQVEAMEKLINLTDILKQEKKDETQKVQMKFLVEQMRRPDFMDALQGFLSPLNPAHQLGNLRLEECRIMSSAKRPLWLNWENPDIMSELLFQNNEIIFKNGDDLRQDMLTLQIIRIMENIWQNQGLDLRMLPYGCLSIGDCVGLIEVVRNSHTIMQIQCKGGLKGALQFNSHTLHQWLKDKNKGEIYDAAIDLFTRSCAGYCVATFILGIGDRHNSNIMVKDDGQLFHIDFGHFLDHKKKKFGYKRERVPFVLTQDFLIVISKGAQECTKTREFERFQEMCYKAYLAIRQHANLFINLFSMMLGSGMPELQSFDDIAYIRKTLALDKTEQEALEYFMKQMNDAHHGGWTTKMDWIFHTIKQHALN
T1 sequence (P27986 whole entry partner): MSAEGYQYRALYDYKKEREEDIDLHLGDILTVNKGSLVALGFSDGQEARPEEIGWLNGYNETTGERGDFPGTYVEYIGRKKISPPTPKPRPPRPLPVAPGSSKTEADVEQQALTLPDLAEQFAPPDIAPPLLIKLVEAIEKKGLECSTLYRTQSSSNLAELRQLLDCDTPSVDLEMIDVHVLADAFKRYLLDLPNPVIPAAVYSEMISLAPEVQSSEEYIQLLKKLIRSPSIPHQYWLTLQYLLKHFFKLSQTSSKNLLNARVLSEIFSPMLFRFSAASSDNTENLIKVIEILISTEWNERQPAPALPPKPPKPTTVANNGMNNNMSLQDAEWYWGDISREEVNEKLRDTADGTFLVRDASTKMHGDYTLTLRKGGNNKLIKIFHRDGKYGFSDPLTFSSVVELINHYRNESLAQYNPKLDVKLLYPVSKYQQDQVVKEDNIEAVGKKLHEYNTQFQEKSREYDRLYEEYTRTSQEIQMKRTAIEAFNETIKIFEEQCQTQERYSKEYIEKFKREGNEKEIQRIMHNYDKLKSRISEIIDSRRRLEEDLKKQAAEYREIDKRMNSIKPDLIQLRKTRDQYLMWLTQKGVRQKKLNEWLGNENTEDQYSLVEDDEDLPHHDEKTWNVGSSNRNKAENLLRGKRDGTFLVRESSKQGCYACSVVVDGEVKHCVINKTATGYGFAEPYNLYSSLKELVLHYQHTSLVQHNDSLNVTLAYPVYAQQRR

In the case of `CC(C)c1nnc(Nc2ccc3nccc(Nc4ccccn4)c3n2)s1` [Example 0005], at human PI3Kα protein (setting [2]), the IC50 is less than 1000 nM.

In the case of `CCOC(=O)c1csc(Nc2ccc3ncc(-c4cnn(C)c4)cc3n2)n1` [Example 0034, ethyl 2-((7-(1-methyl-1H-pyrazol-4-yl)-1,5-naphthyridin-2-yl)amino)thiazole-4-carboxylate], at human PI3Kα protein (setting [2]), the IC50 lay within 1000 to 10000 nM.

In the case of `Cc1nnc(Sc2ccc3ncc(-c4cnn(C)c4)cc3n2)s1` [Example 0047, 2-methyl-5-((7-(1-methyl-1H-pyrazol-4-yl)-1,5-naphthyridin-2-yl)thio)-1,3,4-thiadiazole], the IC50 on human PI3Kα protein (setting [2]) was less than 1000 nM. Still for that read-out and setting: then `COc1cncc(Nc2cnc3ccc(Nc4cncc(OC)c4)nc3c2)c1` [Example 0155, N^2,N^7-bis(5-methoxypyridin-3-yl)-1,5-naphthyridine-2,7-diamine], with 1000 to 10000 nM.

As for `CC(C)c1cnnc(Nc2ccc3nccc(-c4ccncc4)c3n2)c1` [Example 0410], the IC50 (in assay [1] (ERK2 enzyme assay (2)); on human PI3Kα protein) was less than 1000 nM throughout. Regarding `Cc1cccc(Cn2cc(-c3cnc4ccc(Nc5cc(C(C)C)cnn5)nc4c3)cn2)n1` [Example 0411, N-(5-isopropylpyridazin-3-yl)-7-(1-((6-methylpyridin-2-yl)methyl)-1H-pyrazol-4-yl)-1,5-naphthyridine-2-amine], the IC50 (in assay [1] (ERK2 enzyme assay (2)); at human PI3Kα protein) was less than 1000 nM throughout.

Regarding `COc1cccc(Cn2cc(-c3cnc4ccc(Nc5cc(C(C)C)cnn5)nc4c3)cn2)n1` [Example 0412, N-(5-isopropylpyridazin-3-yl)-7-(1-((6-methoxypyridin-2-yl)methyl)-1H-pyrazol-4-yl)-1,5-naphthyridine-2-amine], the IC50 (in assay [1] (ERK2 enzyme assay (2)); on human PI3Kα protein) was less than 1000 nM throughout. `CC(C)c1cnnc(Nc2ccc3ncc(-c4cnn(C(C)c5ccccn5)c4)cc3n2)c1` (centres unmarked) [Example 0414]: the IC50 (in assay [1] (ERK2 enzyme assay (2)); at human PI3Kα protein) was less than 1000 nM throughout. In the case of `CC(C)c1cnnc(Nc2ccc3ncc(-c4cnn(CCCN5CCCCC5=O)c4)cc3n2)c1` [Example 0415, 1-(3-(4-(6-((5-Isopropylpyridazin-3-yl)amino)-1,5-naphthyridin-3-yl)-1H-pyrazol-1-yl)propyl)piperidin-2-one], the IC50 (in assay [1] (ERK2 enzyme assay (2)); at human PI3Kα protein) was less than 1000 nM throughout.

`CC(C)c1cnnc(Nc2ccc3ncc(-c4cnn(CCC(=O)N5CCCCC5)c4)cc3n2)c1` [Example 0416]: the IC50 (in assay [1] (ERK2 enzyme assay (2)); at human PI3Kα protein) was less than 1000 nM each time. Consider `CC(C)c1cnnc(Nc2ccc3ncc(-c4cnn(CCCN5CCC(F)(F)CC5)c4)cc3n2)c1` [Example 0419, 7-(1-(3-(4,4-Difluoropiperidin-1-yl)propyl)-1H-pyrazol-4-yl)-N-(5-isopropylpyridazin-3-yl)-1,5-naphthyridine-2-amine], for which the IC50 (in assay [1] (ERK2 enzyme assay (2)); on human PI3Kα protein) was less than 1000 nM in each case.

Consider `CC(=O)Nc1cc(-c2cnc3ccc(Nc4cc(C(C)C)cnn4)nc3c2)ccn1` [Example 0421, N-(4-(6-((5-isopropylpyridazin-3-yl)amino)-1,5-naphthyridin-3-yl)pyridin-2-yl)acetamide], for which the IC50 (in assay [1] (ERK2 enzyme assay (2)); on human PI3Kα protein) was less than 1000 nM in each case. On to `CNc1cc(-c2cnc3ccc(Nc4cc(C(C)C)cnn4)nc3c2)ccn1` [Example 0423, N-(5-isopropylpyridazin-3-yl)-7-(2-(methylamino)pyridin-4-yl)-1,5-naphthyridine-2-amine hydrochloride], for which the IC50 (in assay [1] (ERK2 enzyme assay (2)); on human PI3Kα protein) was less than 1000 nM in each case. Turning to `CC(C)c1cnnc(Nc2ccc3ncc(-c4cnn(CCCN5CCN(C)CC5=O)c4)cc3n2)c1` [Example 0425], the IC50 (in assay [1] (ERK2 enzyme assay (2)); at human PI3Kα protein) was less than 1000 nM in each case. With `CC(C)c1cnnc(Nc2ccc3ncc(-c4cnn(CCCN5CCC(F)(F)C5)c4)cc3n2)c1` [Example 0427], the IC50 (in assay [1] (ERK2 enzyme assay (2)); at human PI3Kα protein) was less than 1000 nM each time. In the case of `CC(C)c1cnnc(Nc2ccc3ncc(-c4cnn(CCCN5CC[C@H](F)C5)c4)cc3n2)c1` [Example 0428], the IC50 (in assay [1] (ERK2 enzyme assay (2)); at human PI3Kα protein) was less than 1000 nM each time.

Turning to `CC(C)c1cnnc(Nc2ccc3ncc(-c4cnn(CCCN5CC[C@@H](F)C5)c4)cc3n2)c1` [Example 0429], the IC50 (in assay [1] (ERK2 enzyme assay (2)); on human PI3Kα protein) was less than 1000 nM each time. Regarding `CC(C)c1cnnc(Nc2ccc3ncc(-c4cnn(CCCN5CCN(C(=O)N(C)C)CC5)c4)cc3n2)c1` [Example 0433], the IC50 (in assay [1] (ERK2 enzyme assay (2)); on human PI3Kα protein) was less than 1000 nM each time.

Regarding `Cc1nccn1-c1cnc2ccc(Nc3cc(C(C)C)cnn3)nc2c1` [Example 0513], in assay [1] (ERK2 enzyme assay (2)), the IC50 is less than 1000 nM. As to `Cn1cc(-c2cnc3ccc(Nc4nccn4C)nc3c2)cn1` [Example 0516, N-(1-methyl-1H-imidazol-2-yl)-7-(1-methyl-1H-pyrazol-4-yl)-1,5-naphthyridine-2-amine], the IC50 on human PI3Kα protein lay in the range of 10000 to 50000 nM. On the same count and under the same terms, next, `Cc1ccnc(Nc2ccc3ncc(-c4cnn(C)c4)cc3n2)c1` [Example 0546]: less than 1000 nM.

For `Cn1cc(-c2cnc3ccc(Nc4cc(-c5ccccc5)cnn4)nc3c2)cn1` [Example 0570], the IC50 in assay [1] (ERK2 enzyme assay (2)) was less than 1000 nM.

For the molecule `CC(C)c1cnnc(Nc2ccc3ncc(C(=O)N(C)C)cc3n2)c1` [Example 0643], the IC50 in assay [1] (ERK2 enzyme assay (2)) was in the range of 10000 to 50000 nM.

On to `CC(C)c1cnnc(Nc2ccc3ncc(C(=O)NCc4ccccc4)cc3n2)c1` [Example 0647, N-benzyl-6-((5-isopropylpyridazin-3-yl)amino)-1,5-naphthyridine-3-carboxamide], for which the IC50 in assay [1] (ERK2 enzyme assay (2)) is 1000 to 10000 nM. The same measure, in the same setting: then `CC(C)c1cnnc(Nc2ccc3ncc(C(=O)Nc4ccccc4)cc3n2)c1` [Example 0668], with 1000 to 10000 nM. Regarding `Cn1cc(-c2cnc3ccc(Nc4ccccc4N)nc3c2)cn1` [Example 0675, N^1-(7-(1-methyl-1H-pyrazol-4-yl)-1,5-naphthyridin-2-yl)benzene-1,2-diamine], the IC50 on human PI3Kα protein lay in the range of 10000 to 50000 nM. The same measure, in the same setting: then `Cn1cc(-c2cnc3ccc(Nc4cccc(N)c4)nc3c2)cn1` [Example 0677, N^1-(7-(1-methyl-1H-pyrazol-4-yl)-1,5-naphthyridin-2-yl)benzene-1,3-diamine], with 1000 to 10000 nM; and `CC(C)c1cnnc(Nc2ccc3ncc(-c4cn(C)nc4-c4ccnc(N(C)C)c4)cc3n2)c1` [Example 0753, 7-(3-(2-(Dimethylamino)pyridin-4-yl)-1-methyl-1H-pyrazol-4-yl)-N-(5-isopropylpyridazin-3-yl)-1,5-naphthyridine-2-amine], with less than 1000 nM. `Cn1cc(-c2cnc3ccc(Nc4cc(-c5ccncc5)cnn4)nc3c2)cn1` [Example 0763]: the IC50 in assay [1] (ERK2 enzyme assay (2)) was less than 1000 nM. Consider `Cn1cc(-c2cnc3ccc(Nc4ccncn4)nc3c2)cn1` [Example 0775, 7-(1-Methyl-1H-pyrazol-4-yl)-N-(pyrimidin-4-yl)-1,5-naphthyridine-2-amine], for which, at human PI3Kα protein, the IC50 is less than 1000 nM.

As for `Cn1cc(-c2cnc3ccc(Nc4cc(C(C)(C)C)on4)nc3c2)cn1` [Example 0776, 5-(tert-Butyl)-N-(7-(1-methyl-1H-pyrazol-4-yl)-1,5-naphthyridin-2-yl)isoxazole-3-amine], at human PI3Kα protein, the IC50 lay in the range of 10000 to 50000 nM. Turning to `Cc1ccc(S(=O)(=O)NC2CN(c3cnc4ccc(Nc5cc(C(C)C)cnn5)nc4c3)C2)cc1` [Example 0866], the IC50 at human PI3Kα protein lay in the range of 1000 to 10000 nM. For the molecule `CC(C)c1cnnc(Nc2ccc3ncc(-c4cnn(C)c4)c(O)c3n2)c1` [Example 0915, 6-((5-Isopropylpyridazin-3-yl)amino)-3-(1-methyl-1H-pyrazol-4-yl)-1,5-naphthyridine-4-ol], in assay [1], the IC50 lay in the range of 10000 to 50000 nM.

The values are drawn from patent publication US9783536B2, “Nitrogen-containing heterocyclic compound or salt thereof” (FUJIFILM Corporation, priority 2013, dated 2017).
